Experimental data as given in PubChem BioAssay AID330 (DTP/NCI, 2004).
“And” between values parts separate entries of the source, which are not always exact repeats. Equal entries are not always repeated. Toxic doses and inconclusive results are not listed.

Tested on: P388 leukemia ip, CD2F1 mice, survival T/C
Assay: NCI In Vivo Anticancer Drug Screen. Data for tumor model P388 Leukemia (intraperitoneal) in CD2F1 (CDF1) mice
Conditions: endpoint: median survival time, higher = longer survival
Procedure, shortened: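 Mice carrying the transplanted tumor received test compound or vehicle. Survival was recorded in each group, and the value is the treated-group measurement divided by that of the vehicle-treated control group.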

[1] = dose: 12.5 mg/kg/injection, schedule: Q01DX009 (ip), vehicle: saline with Tween-80
[2] = dose: 25.0 mg/kg/injection, schedule: Q01DX009 (ip), vehicle: saline with Tween-80
[3] = dose: 50.0 mg/kg/injection, schedule: Q01DX009 (ip), vehicle: saline with Tween-80
[4] = dose: 25.0 mg/kg/injection, schedule: Q01DX005 (ip), vehicle: Klucel (hydroxypropylcellulose) (HPC)
[5] = dose: 100.0 mg/kg/injection, schedule: Q01DX001 (ip), vehicle: Klucel (hydroxypropylcellulose) (HPC)
[6] = dose: 200.0 mg/kg/injection, schedule: Q01DX001 (ip), vehicle: Klucel (hydroxypropylcellulose) (HPC)
[7] = dose: 400.0 mg/kg/injection, schedule: Q01DX001 (ip), vehicle: Klucel (hydroxypropylcellulose) (HPC)
[8] = dose: 50.0 mg/kg/injection, schedule: Q01DX005 (ip), vehicle: Klucel (hydroxypropylcellulose) (HPC)
[9] = dose: 100.0 mg/kg/injection, schedule: Q01DX005 (ip), vehicle: Klucel (hydroxypropylcellulose) (HPC)
[10] = dose: 200.0 mg/kg/injection, schedule: Q01DX005 (ip), vehicle: Klucel (hydroxypropylcellulose) (HPC)
[11] = dose: 100.0 mg/kg/injection, schedule: Q01DX009 (ip), vehicle: saline with Tween-80
[12] = dose: 200.0 mg/kg/injection, schedule: Q01DX009 (ip), vehicle: saline with Tween-80
[13] = dose: 50.0 mg/kg/injection, schedule: Q01DX009 (ip), vehicle: Klucel (hydroxypropylcellulose) (HPC)
[14] = dose: 100.0 mg/kg/injection, schedule: Q01DX009 (ip), vehicle: Klucel (hydroxypropylcellulose) (HPC)
[15] = dose: 200.0 mg/kg/injection, schedule: Q01DX009 (ip), vehicle: Klucel (hydroxypropylcellulose) (HPC)
[16] = dose: 50.0 mg/kg/injection, schedule: Q01DX009 (ip), vehicle: saline
[17] = dose: 100.0 mg/kg/injection, schedule: Q04DX002 (ip), vehicle: saline
[18] = dose: 200.0 mg/kg/injection, schedule: Q04DX002 (ip), vehicle: saline
[19] = dose: 12.5 mg/kg/injection, schedule: Q01DX009 (ip), vehicle: saline
[20] = dose: 25.0 mg/kg/injection, schedule: Q01DX009 (ip), vehicle: saline

## O=C1CN(CCN2CCOCC2)CC(=O)N2Cc3ccccc3CN12
dose: 50.0 mg/kg/injection, schedule: Q01DX005 (ip), vehicle: saline with Tween-80
  T/C: 108 % of control
dose: 100.0 mg/kg/injection, schedule: Q01DX005 (ip), vehicle: saline with Tween-80
  T/C: 98 % of control
dose: 200.0 mg/kg/injection, schedule: Q01DX005 (ip), vehicle: saline with Tween-80
  T/C: 101 % of control

## Cc1cn(O)cc(C)c1=N
[1]
  T/C: 100 % of control
[2]
  T/C: 100 % of control
[3]
  T/C: 108 % of control

## CCCCCCCCCCCCN1C(C)=CS/C1=C\C=C\c1scc(C)[n+]1CCCCCCCCCCCC
dose: 0.75 mg/kg/injection, schedule: Q01DX005 (ip), vehicle: saline with Tween-80
  T/C: 110 % of control
dose: 3.0 mg/kg/injection, schedule: Q01DX005 (ip), vehicle: saline with Tween-80
  T/C: 119 % of control
dose: 3.12 mg/kg/injection, schedule: Q04DX002 (ip), vehicle: saline with Tween-80
  T/C: 150 % of control
dose: 6.25 mg/kg/injection, schedule: Q04DX002 (ip), vehicle: saline with Tween-80
  T/C: 150 % of control and 157 % of control
dose: 12.5 mg/kg/injection, schedule: Q04DX002 (ip), vehicle: saline with Tween-80
  T/C: 160 % of control and 163 % of control

## CCCCN=Cc1c(OC(C)=O)c(OC(C)=O)c(C(C)C)c2cc(C)c(-c3c(C)cc4c(C(C)C)c(OC(C)=O)c(OC(C)=O)c(C=NCCCC)c4c3OC(C)=O)c(OC(C)=O)c12
dose: 6.25 mg/kg/injection, schedule: Q01DX005 (ip), vehicle: Klucel (hydroxypropylcellulose) (HPC)
  T/C: 95 % of control
dose: 12.5 mg/kg/injection, schedule: Q01DX005 (ip), vehicle: Klucel (hydroxypropylcellulose) (HPC)
  T/C: 98 % of control
[4]
  T/C: 97 % of control

## Cc1ccc(S(=O)(=O)N/N=C/c2c(Cl)n(C(=O)c3ccccc3F)c3ccccc23)cc1
dose: 50.0 mg/kg/injection, schedule: Q01DX001 (ip), vehicle: Klucel (hydroxypropylcellulose) (HPC)
  T/C: 93 % of control
[5]
  T/C: 95 % of control
[6]
  T/C: 90 % of control
[7]
  T/C: 86 % of control

## Nc1ccc(O)c2c1C(=O)c1c(O)c(S(=O)(=O)O)cc(N)c1C2=O
[4]
  T/C: 108 % of control
[8]
  T/C: 102 % of control
[9]
  T/C: 105 % of control
[10]
  T/C: 102 % of control

## O=S1(c2ccccc2)=NC(Nc2ccccc2)=Nc2ccccc21 (stereo unspecified)
[3]
  T/C: 107 % of control
[11]
  T/C: 101 % of control
[12]
  T/C: 111 % of control

## CCN(CC)CCNc1c(OC)cc(C)c2sc3ccccc3c(=O)c12
[3]
  T/C: 115 % of control
[11]
  T/C: 117 % of control

## O=C1NC(=O)N2CC(CBr)OC2C1c1ccccc1 (stereo unspecified)
[13]
  T/C: 101 % of control
[14]
  T/C: 100 % of control
[15]
  T/C: 100 % of control

## COc1ccc(CSCC(NC(=O)OC(C)(C)C)C(=O)O)cc1 (stereo unspecified)
[8]
  T/C: 105 % of control
[9]
  T/C: 97 % of control
[10]
  T/C: 100 % of control

## CCSC(C)(C)C
[16]
  T/C: 102 % of control
dose: 100.0 mg/kg/injection, schedule: Q01DX009 (ip), vehicle: saline
  T/C: 100 % of control
dose: 200.0 mg/kg/injection, schedule: Q01DX009 (ip), vehicle: saline
  T/C: 100 % of control

## Nc1c(CNCc2nnn(Cc3ccccc3)c2N)nnn1Cc1ccccc1
[3]
  T/C: 96 % of control
[11]
  T/C: 93 % of control
[12]
  T/C: 93 % of control

## CC(SC(C)C(=O)O)C(=O)O (stereo unspecified)
[17]
  T/C: 97 % of control
[18]
  T/C: 109 % of control

## O=C(O)c1ccc(C(=O)c2ccc([N+](=O)[O-])cc2)cc1
dose: 60.0 mg/kg/injection, schedule: Q01DX005 (ip), vehicle: saline with Tween-80
  T/C: 103 % of control
dose: 120.0 mg/kg/injection, schedule: Q01DX005 (ip), vehicle: saline with Tween-80
  T/C: 104 % of control
dose: 240.0 mg/kg/injection, schedule: Q01DX005 (ip), vehicle: saline with Tween-80
  T/C: 103 % of control

## CCCCCCCCCCCCCC[N+]1([O-])CCCCC1
[19]
  T/C: 100 % of control
[20]
  T/C: 92 % of control
[16]
  T/C: 106 % of control and 91 % of control

## O=[n+]1c2c(n([O-])c3ccccc31)CCC2
[3]
  T/C: 98 % of control
[11]
  T/C: 100 % of control
[12]
  T/C: 108 % of control

## Nc1cc(I)c2cccnc2c1O
dose: 6.25 mg/kg/injection, schedule: Q01DX009 (ip), vehicle: saline
  T/C: 119 % of control
[19]
  T/C: 115 % of control
dose: 16.0 mg/kg/injection, schedule: Q01DX009 (ip), vehicle: saline
  T/C: 98 % of control
[20]
  T/C: 92 % of control and 98 % of control
dose: 35.0 mg/kg/injection, schedule: Q01DX009 (ip), vehicle: saline
  T/C: 107 % of control
[16]
  T/C: 119 % of control

## COc1ccc(Cc2ccc[nH]2)cc1
dose: 100.0 mg/kg/injection, schedule: Q01DX001 (ip), vehicle: distilled water + alcohol
  T/C: 97 % of control
dose: 200.0 mg/kg/injection, schedule: Q01DX001 (ip), vehicle: distilled water + alcohol
  T/C: 97 % of control
dose: 400.0 mg/kg/injection, schedule: Q01DX001 (ip), vehicle: distilled water + alcohol
  T/C: 96 % of control

## O=[N+]([O-])c1ccc(Sc2ccc(Cl)cc2)c2nonc12
dose: 6.25 mg/kg/injection, schedule: Q01DX009 (ip), vehicle: saline with Tween-80
  T/C: 105 % of control
[1]
  T/C: 101 % of control
[2]
  T/C: 93 % of control

## O=C1CC(SC(=S)N2CCCCC2)C(=O)N1c1ccccc1 (stereo unspecified)
[17]
  T/C: 105 % of control and 98 % of control
[18]
  T/C: 100 % of control and 109 % of control
dose: 400.0 mg/kg/injection, schedule: Q04DX002 (ip), vehicle: saline
  T/C: 100 % of control and 104 % of control

## O=C1C2(Cl)C(Cl)=C(Cl)C1(Cl)C1(Cl)C(Cl)=C(Cl)C(=O)C21Cl (stereo unspecified)
dose: 10.0 mg/kg/injection, schedule: Q01DX009 (ip), vehicle: saline with Tween-80
  T/C: 104 % of control
dose: 20.0 mg/kg/injection, schedule: Q01DX009 (ip), vehicle: saline with Tween-80
  T/C: 104 % of control
dose: 40.0 mg/kg/injection, schedule: Q01DX009 (ip), vehicle: saline with Tween-80
  T/C: 100 % of control

## CNC(=O)OCc1c(COC(=O)NC)c(-c2cccc(F)c2F)n2c1CCC2
dose: 12.5 mg/kg/injection, schedule: Q01DX009 (ip), vehicle: distilled water + Tween-80
  T/C: 171 % of control
dose: 25.0 mg/kg/injection, schedule: Q01DX009 (ip), vehicle: distilled water + Tween-80
  T/C: 156 % of control and 159 % of control

## Cc1ccn2c(C(C)O)nnc2c1 (stereo unspecified)
[3]
  T/C: 93 % of control
[11]
  T/C: 90 % of control
[12]
  T/C: 100 % of control

## C=C(Cl)CSC(=S)N(CC)CC
dose: 37.5 mg/kg/injection, schedule: Q01DX009 (ip), vehicle: saline sonified
  T/C: 100 % of control
dose: 75.0 mg/kg/injection, schedule: Q01DX009 (ip), vehicle: saline sonified
  T/C: 104 % of control
dose: 150.0 mg/kg/injection, schedule: Q01DX009 (ip), vehicle: saline sonified
  T/C: 109 % of control

## CN1CCC23c4c5ccc(O)c4OC2C(=NN=C2CCC4(O)C6Cc7ccc(O)c8c7C4(CCN6C)C2O8)CCC3(O)C1C5 (stereo unspecified)
dose: 12.5 mg/kg/injection, schedule: Q01DX005 (ip), vehicle: saline with Tween-80
  T/C: 96 % of control
dose: 25.0 mg/kg/injection, schedule: Q01DX005 (ip), vehicle: saline with Tween-80
  T/C: 90 % of control

## CCC(c1ccc(OCc2ccccc2)cc1)c1cc2c(cc1OCCO)OCO2 (stereo unspecified)
dose: 50.0 mg/kg/injection, schedule: Q01DX005 (ip), vehicle: distilled water + Tween-80
  T/C: 87 % of control
dose: 100.0 mg/kg/injection, schedule: Q01DX005 (ip), vehicle: distilled water + Tween-80
  T/C: 87 % of control
dose: 200.0 mg/kg/injection, schedule: Q01DX005 (ip), vehicle: distilled water + Tween-80
  T/C: 89 % of control

## COc1cccc2c1C1c3ccccc3Sc3cccc(c31)O2 (stereo unspecified)
[4]
  T/C: 98 % of control
[8]
  T/C: 100 % of control
[9]
  T/C: 100 % of control
[10]
  T/C: 99 % of control

## COc1ccc(Cl)cc1C(=O)NCCc1ccc(CCC(=O)O)cc1
[13]
  T/C: 99 % of control
[14]
  T/C: 98 % of control
[15]
  T/C: 102 % of control

## O=c1[nH]cc(-c2ccccc2)c(=O)[nH]1
[5]
  T/C: 100 % of control
[6]
  T/C: 98 % of control
[7]
  T/C: 96 % of control
